Test results: patent US20070224267A1, “Ambroxol for the treatment of painful conditions in the mouth and pharyngeal cavity” (priority 2002, published 2007)
Structures can show the parent of a compound that is named as a salt.

Key:
[1] = system: patients with acute sore throat; experiment: Clinical trial of suckable tablets containing 20 or 30 mg ambroxol hydrochloride vs placebo in acute sore throat (Example 2); format: in vivo; conditions: for average SPIDnorm (±SD) after the first suckable tablet: time-weighted average pain reduction in first 3 hours, standardised to initial pain, placebo 0.38±0.28
Description: A multi-centred, prospective, placebo-controlled, randomised double-blind trial was carried out over three days' treatment with up to 6 suckable tablets containing ambroxol hydrochloride per day. Patients: 331 ambulant patients with acute uncomplicated sore throats of at least moderate severity but with no bacterial pharyngitis were investigated. Treatments: Double-blind treatment with up to 6 suckable tablets per day containing either 20 mg or 30 mg of ambroxol hydrochloride or constituting a placebo (suckable tablet without the active substance, but again with a marked flavour of peppermint similar to the test substance). End points: The average pain reduction, weighted for time, during the first 3 hours after administration of the first suckable tablet, standardised to the degree of initial pain (SPIDnorm); moreover, the assessment of effectiveness and tolerance by the patient at the end of each day of treatment.

[2] = system: patients with acute sore throat; experiment: Clinical trial of suckable tablets containing 20 mg ambroxol hydrochloride vs placebo in acute sore throat (Example 1); format: in vivo
Description: A multi-centred, prospective, placebo-controlled, randomised double-blind trial was carried out over two days' treatment with up to 6 suckable tablets containing ambroxol hydrochloride per day. Patients: 218 patients (97 men, 121 women) with an average age of 39.4±15 years (range from 17-81 years) were recruited; of these 215 patients were treated: 107 with 20 mg of ambroxol and 108 with placebo. 26 patients stopped the treatment early (13 in each treatment group). The intent-to-treat (ITT) population consisted of 208 patients (105 treated with ambroxol and 103 given the placebo); 196 patients formed the per-protocol (PP) population (97 with test substance and 99 with placebo). For the drug safety analysis, all the patients treated were studied. Treatments: Double-blind treatment with up to 6 suckable tablets per day, which either contained 20 mg of ambroxol or constituted a placebo (suckable tablet without the active substance, but with a marked flavour of peppermint similar to the test substance). End points: The average pain reduction, weighted for time, during the first 3 hours after administration of the first suckable tablet, standardised to the degree of initial pain (SPIDnorm); moreover, the assessment of effectiveness and tolerance by the patient at the end of each day of treatment.

[3] = up to 6 suckable tablets of 20 mg per day, two days, vs placebo

Q: Which “average SPIDnorm (±SD) after the first suckable tablet” value (from here on “average SPIDnorm (±SD)”) ([1]; 20 mg suckable tablet) does the source give for `Nc1c(Br)cc(Br)cc1CN[C@H]1CC[C@H](O)CC1` [ambroxol hydrochloride, trans-4-[(2-amino-3,5-dibromobenzyl)amino]cyclohexano hydrochloride] here?
A: 0.53±0.28

Q: And the “average SPIDnorm (±SD)” value ([1]; 30 mg suckable tablet)?
A: 0.50±0.30

Q: What about the “assessment of effectiveness by the patient at the end of each day of treatment” value ([1]; up to 6 suckable tablets of 20 or 30 mg per day, three days, vs placebo) of the same compound?
A: statistically significantly larger number of patients reported a higher degree of effectiveness

Q: And the tolerance ([1]; up to 6 suckable tablets per day, three days, all dosages (20 and 30 mg), vs placebo)?
A: tolerated just as well as the placebo

Q: What about the “average SPIDnorm (±SD)” value ([2]; 20 mg suckable tablet, time-weighted average pain reduction in first 3 hours, standardised to initial pain, placebo 0.28±0.25) of the same compound?
A: 0.39±0.27

Q: And the “assessment of effectiveness by the patient at the end of each day of treatment” value [2, 3]?
A: statistically significantly larger number of patients reported a higher degree of effectiveness

Q: And the tolerance [2, 3]?
A: tolerated just as well as the placebo
